Laboratory results as given in US9926304B2, “1-(arylmethyl)quinazoline-2,4(1H,3H)-diones as PARP inhibitors and the use thereof” (Impact Therapeutics, Inc., priority 2011, dated 2018).
Values belong to the compound of their own block, whether it stands above or below them.

How the values were obtained:
[1] = test system: Human breast cancer cell line T47D; experiment: Cell based caspase-3 activity assay: potentiation of MMS induced apoptosis; settings: Homo sapiens, T47D, 24 h, T47D cells, 11.1 μg/ml MMS, 24 hours, intracellular caspase-3 activity; read-out: EC50 (nM), potentiation of the apoptosis inducing activity of MMS
Method in brief: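 T47D cells were exposed for 24 h to compound plus a minimally apoptotic MMS dose (medium containing 11.1 μg/ml MMS). Lysates were incubated 3 h at 37 °C with (Ac-DEVD)2-R110 caspase-3 substrate (20 μM in added buffer) and read at ex 496/em 520 nm. EC50 came from a sigmoidal fit of RFU versus log concentration.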

[2] = test system: BRCA-2 deficient CAPAN-1 human pancreatic cancer cells; experiment: MTT based cell viability assay: growth inhibition of BRCA-2 deficient CAPAN-1 cells; settings: 240 h, compound alone, 10 day assay
From the text: Determination of the cell growth inhibiting activity of 1-(3-(4-(pyrimidin-2-yl)piperazine-1-carbonyl)benzyl)quinazoline-2,4(1H,3H)-dione and analogs on BRCA-2 deficient CAPAN-1 pancreatic duck cancer cells using a MTT based cell viability assay
BRCA-deficient cancer cells are sensitive to PARP inhibition. In the presence of PARP inhibitors, BRCA-deficient cancer cells could not grow and eventually will lead to death of cells. BRCA-2 deficient CAPAN-1 human pancreatic cancer cells were used to test the growth inhibiting activity of substituted 1-(arylmethyl)quinazoline-2,4(1H,3H)-diones. Briefly, CAPAN-1 cells are grown and maintained in IMEM medium supplemented with 20% FBS. The assay takes 10 days to finish. On day 1, 6000 CAPAN-1 cells are seeded to each well of a 96-well plate. The cells are incubated at 37° C. in a cell culture incubator overnight. In the next day, serial dilutions of compounds to be tested and reference compound (AZD2281) were prepared with a 1:3 and 1:10 fashion in DMSO. Ten-fold compound solutions were made by mixing 10 μl DMSO serial dilution solutions with 90 μl fresh growth medium. The cell culture medium was removed and 180 μl fresh media with FBS and 20 μl of compound solutions were added to each well. The final concentration of DMSO was 1%. Cells were then returned to the CO2 cell culture incubator and incubated at 37° C. for two days (day 3 and day 4). On day 5, the same procedure as what was done on day 2 was repeated. Cell culture medium was removed and fresh medium containing serial dilutions of compounds or reference compounds were added. Cells were returned to the CO2 cell culture incubator and incubated for two more days. On day 8, same procedure was repeated again and fresh medium containing the testing compounds or reference compounds were added and incubated for an additional 2 days. On day 10, 20 μl of MTT reagent (5 mg/ml) was added to each well of the cell culture plate and incubated for 4 h. The cell culture media was removed and 100 μl DMSO was added to each well. The 96-well cell culture plates were shaked horizontally for 10 min and readed in a Varioskan Flash plate reader (Thermo Fisher Scientific) at 520 and 690 nm. The obtained 520 nm absorbance readings subtracting corresponding 690 nm reading were analyzed using a commercial graphic software (GraphPad Prism 5) and plotted against the Log scale of the compound concentrations.

[3] = test system: SW620 human colorectal cancer cells; experiment: MTT based cell viability assay: potentiation of the growth inhibiting activity of MMS; settings: Homo sapiens, SW-620, 120 h, read-out: IC50 (nM), potentiation of the growth inhibiting activity of MMS, SW620 cells, 1.7 μg/ml MMS, 5 days (120 hours), MTT

Structure (SMILES): CCS(=O)(=O)N1CCN(C(=O)c2cccc(Cn3c(=O)[nH]c(=O)c4ccccc43)c2)CC1 [Example 16, 1-(3-(4-(Ethylsulfonyl)piperazine-1-carbonyl)benzyl)quinazoline-2,4(1H,3H)-dione]
EC50 [1]: 9210 nM | IC50 [3]: 7260 nM

Structure (SMILES): O=C(c1ccc(F)c(Cn2c(=O)[nH]c(=O)c3ccccc32)c1)N1CCN(C(=O)c2ccco2)CC1 [Example 54, 1-(6-Fluoro-3-(4-(furan-2-carbonyl)piperazine-1-carbonyl)benzyl)quinazoline-2,4(1H,3H)-dione]
EC50 [1]: 124 nM | IC50 [3]: 217 nM

Structure (SMILES): O=C(c1cccc(Cn2c(=O)[nH]c(=O)c3ccccc32)c1)N1CCN(c2ccncc2)CC1 [Example 29, 1-(3-(4-(Pyridin-4-yl)piperazine-1-carbonyl)benzyl)quinazoline-2,4(1H,3H)-dione]
EC50 [1]: > 10000 nM | IC50 [3]: > 10000 nM

Structure (SMILES): Cc1cccc2c1c(=O)[nH]c(=O)n2Cc1cccc(C(=O)N2CCN(C(=O)C3CCCC3)CC2)c1 [Example 160, 1-(3-(4-(Cyclopentylcarbonyl)piperazine-1-carbonyl)benzyl)-5-methylquinazoline-2,4(1H,3H)-dione]
EC50 [1]: 261 nM | IC50 [3]: 394 nM

Structure (SMILES): O=C(O)c1cc(Cn2c(=O)[nH]c(=O)c3ccccc32)ccc1F [Example 22, 1-(3-Carboxy-4-fluorobenzyl)quinazoline-2,4(1H,3H)-dione]
EC50 [1]: > 10000 nM | IC50 [3]: > 10000 nM

Structure (SMILES): O=C(c1ccc(Cl)c(Cn2c(=O)[nH]c(=O)c3ccccc32)c1)N1CCN(C(=O)C2CCCC2)CC1 [Example 55, 1-(6-Chloro-3-(4-(cyclopentylcarbonyl)piperazine-1-carbonyl)benzyl)quinazoline-2,4(1H,3H)-dione]
EC50 [1]: 20 nM | IC50 [3]: 89 nM

Structure (SMILES): O=C(c1cccc(Cn2c(=O)[nH]c(=O)c3ccccc32)c1Cl)N1CCN(c2ncccn2)CC1 [Example 60, 1-(2-Chloro-3-(4-(pyrimidin-2-yl)piperazine-1-carbonyl)benzyl)quinazoline-2,4(1H,3H)-dione]
EC50 [1]: > 10000 nM | IC50 [3]: > 10000 nM

Structure (SMILES): O=C(c1cccc(-n2c(=O)[nH]c(=O)c3ccccc32)c1)N1CCN(c2ncccn2)CC1 [Example 221, 1-(3-(4-(Pyrimidin-2-yl)piperazine-1-carbonyl)phenyl)quinazoline-2,4(1H,3H)-dione]
EC50 [1]: > 10000 nM | IC50 [3]: > 10000 nM

Structure (SMILES): COc1ccc(C(=O)N2CCN(C(=O)c3cccc(Cn4c(=O)[nH]c(=O)c5ccccc54)c3)CC2)cc1 [Example 12, 1-(3-(4-(4-Methoxybenzoyl)piperazine-1-carbonyl)benzyl)quinazoline-2,4(1H,3H)-dione]
EC50 [1]: 318 nM | IC50 [3]: 533 nM

Structure (SMILES): COc1cccc2c1c(=O)[nH]c(=O)n2Cc1cccc(C(=O)N2CCN(c3ncccn3)CC2)c1 [Example 203, 5-Methoxy-1-(3-(4-(pyrimidin-2-yl)piperazine-1-carbonyl)benzyl)quinazoline-2,4(1H,3H)-dione]
EC50 [1]: > 10000 nM | IC50 [3]: > 10000 nM

Structure (SMILES): O=C(c1cccc(Cn2c(=O)[nH]c(=O)c3ccccc32)c1Cl)N1CCN(C(=O)C2CCCC2)CC1 [Example 59, 1-(2-Chloro-3-(4-(cyclopentylcarbonyl)piperazine-1-carbonyl)benzyl)quinazoline-2,4(1H,3H)-dione]
EC50 [1]: > 10000 nM | IC50 [3]: > 10000 nM

Structure (SMILES): O=C(c1cccc(Cn2c(=O)[nH]c(=O)c3ccccc32)c1)N1CCN(C(=O)c2ccco2)CC1 [Example 33, 1-(3-(4-(Furan-2-carbonyl)piperazine-1-carbonyl)benzyl)quinazoline-2,4(1H,3H)-dione]
EC50 [1]: 96 nM | IC50 [3]: 130 nM

Structure (SMILES): O=C(c1cc(Cn2c(=O)[nH]c(=O)c3c(Cl)cccc32)ccc1F)N1CCN(c2ccccn2)CC1 [Example 106, 5-Chloro-1-(4-fluoro-3-(4-(pyridin-2-yl)piperazine-1-carbonyl)benzyl)quinazoline-2,4(1H,3H)-dione]
EC50 [1]: 217 nM | IC50 [3]: 105 nM

Structure (SMILES): O=C(c1cccc(Cn2c(=O)[nH]c(=O)c3cc(Br)ccc32)c1)N1CCN(c2ncccn2)CC1 [Example 88, 6-Bromo-1-(3-(4-(pyrimidin-2-yl)piperazine-1-carbonyl)benzyl)quinazoline-2,4(1H,3H)-dione]
EC50 [1]: 67 nM | IC50 [3]: 137 nM

Structure (SMILES): O=C(c1cccc(Cn2c(=O)[nH]c(=O)c3ccccc32)c1)N1CCN(C2CCCCC2)CC1 [Example 5, 1-(3-(4-Cyclohexylpiperazine-1-carbonyl)benzyl)quinazoline-2,4(1H,3H)-dione]
EC50 [1]: 450 nM | IC50 [3]: 5360 nM

These reach a lower IC50 [3]. Values come first.

EC50 [1]: 3.2 nM | IC50 [2]: 40 nM | IC50 [3]: 7.1 nM
Structure (SMILES): O=C(c1cccs1)N1CCN(C(=O)c2cc(Cn3c(=O)[nH]c(=O)c4c(F)cccc43)ccc2F)CC1 [Example 136, 5-Fluoro-1-(4-fluoro-3-(4-(thiophene-2-carbonyl)piperazine-1-carbonyl)benzyl)quinazoline-2,4(1H,3H)-dione]

EC50 [1]: 10 nM | IC50 [2]: 421 nM | IC50 [3]: 32 nM
Structure (SMILES): O=C(c1ccc(F)c(Cn2c(=O)[nH]c(=O)c3ccccc32)c1)N1CCN(C(=O)C2CCCCC2)CC1 [Example 49, 1-(3-(4-(Cyclohexylcarbonyl)piperazine-1-carbonyl)-6-fluorobenzyl)quinazoline-2,4(1H,3H)-dione]

EC50 [1]: 6.5 nM | IC50 [2]: 146 nM | IC50 [3]: 12 nM
Structure (SMILES): O=C(c1cc(Cn2c(=O)[nH]c(=O)c3cc(F)ccc32)ccc1F)N1CCN(c2ccccn2)CC1 [Example 145, 6-Fluoro-1-(4-fluoro-3-(4-(pyridin-2-yl)piperazine-1-carbonyl)benzyl)quinazoline-2,4(1H,3H)-dione]

IC50 [2]: 472 nM | IC50 [3]: 7.8 nM
Structure (SMILES): O=C(c1cc(Cn2c(=O)[nH]c(=O)c3cc(F)ccc32)ccc1F)N1CCN(c2nccs2)CC1 [Example 188, 6-Fluoro-1-(4-fluoro-3-(4-(thiazol-2-yl)piperazine-1-carbonyl)benzyl)quinazoline-2,4(1H,3H)-dione]

IC50 [2]: 1380 nM | IC50 [3]: 21 nM
Structure (SMILES): O=C(c1cc(Cn2c(=O)[nH]c(=O)c3ccccc32)ccc1F)N1CCN(c2nccs2)CC1 [Example 190, 1-(4-Fluoro-3-(4-(thiazol-2-yl)piperazine-1-carbonyl)benzyl)quinazoline-2,4(1H,3H)-dione]

EC50 [1]: 5.2 nM | IC50 [3]: 18 nM
Structure (SMILES): O=C(c1ccc(F)c(Cn2c(=O)[nH]c(=O)c3cc(F)ccc32)c1)N1CCN(C(=O)c2cccs2)CC1 [Example 151, 6-Fluoro-1-(6-fluoro-3-(4-(thiophene-2-carbonyl)piperazine-1-carbonyl)benzyl)quinazoline-2,4(1H,3H)-dione]

EC50 [1]: 15 nM | IC50 [3]: 50 nM
Structure (SMILES): O=C(c1cc(F)cc(Cn2c(=O)[nH]c(=O)c3ccccc32)c1)N1CCN(c2ncccn2)CC1 [Example 63, 1-(5-Fluoro-3-(4-(pyrimidin-2-yl)piperazine-1-carbonyl)benzyl)quinazoline-2,4(1H,3H)-dione]

EC50 [1]: 4.1 nM | IC50 [3]: 3.4 nM
Structure (SMILES): O=C(c1cccs1)N1CCN(C(=O)c2cc(Cn3c(=O)[nH]c(=O)c4cc(F)ccc43)ccc2F)CC1 [Example 146, 6-Fluoro-1-(4-fluoro-3-(4-(thiophene-2-carbonyl)piperazine-1-carbonyl)benzyl)quinazoline-2,4(1H,3H)-dione]

EC50 [1]: 30 nM | IC50 [3]: 27 nM
Structure (SMILES): O=C(c1ccc(Cl)c(Cn2c(=O)[nH]c(=O)c3cc(F)ccc32)c1)N1CCN(c2ncccn2)CC1 [Example 187, 1-(6-Chloro-3-(4-(pyrimidin-2-yl)piperazine-1-carbonyl)benzyl)-6-fluoroquinazoline-2,4(1H,3H)-dione]

EC50 [1]: 27 nM | IC50 [3]: 35 nM
Structure (SMILES): O=C(c1cccc(Cn2c(=O)[nH]c(=O)c3cc(Br)ccc32)c1)N1CCN(C(=O)C2CCCC2)CC1 [Example 87, 6-Bromo-1-(3-(4-(cyclopentylcarbonyl)piperazine-1-carbonyl)benzyl)quinazoline-2,4(1H,3H)-dione]

EC50 [1]: 7.4 nM | IC50 [3]: 12 nM
Structure (SMILES): O=C(c1cccc(Cn2c(=O)[nH]c(=O)c3cc(F)ccc32)c1)N1CCN(C(=O)C2CCC2)CC1 [Example 179, 1-(3-(4-(Cyclobutylcarbonyl)piperazine-1-carbonyl)benzyl)-6-fluoroquinazoline-2,4(1H,3H)-dione]
